The supplement of paper PMC10307832

Assays:
Experiment in all cases: relative viability (nuclei count vs DMSO), 5 days (fraction); higher = more cells survive
NCI-H520 = tested on: NCI-H520
Outline: (§1)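 Lung cancer cell lines in 1536-well plates were dosed by pin tool the day after seeding, either with one drug alone or with a fixed anchor-drug dose plus five library-drug doses (not always all listed) in √10 steps. After 5 days, cells were fixed and their nuclei stained in one step (final 0.05% Triton X-100, 1% formaldehyde, 1 ug/ml Hoechst), then counted on 4× images. Relative viability is the nuclei count in treated wells divided by that in vehicle wells. Values are medians of duplicate plates.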

NCI-H1651 = tested on: NCI-H1651
Outline: as §1

NCI-H1944 = tested on: NCI-H1944
Outline: as §1

201T = tested on: 201T
Outline: as §1

PC-3 [JPC-3] = tested on: PC-3 [JPC-3]
Outline: as §1

BEN = tested on: BEN
Outline: as §1

A-427 = tested on: A-427
Outline: as §1

NCI-H441 = tested on: NCI-H441
Outline: as §1

LCLC-97TM1 = tested on: LCLC-97TM1
Outline: as §1

NCI-H596 = tested on: NCI-H596
Outline: as §1

HCC-15 = tested on: HCC-15
Outline: as §1

NCI-H1792 = tested on: NCI-H1792
Outline: as §1

CAL-12T = tested on: CAL-12T
Outline: as §1

NCI-H2087 = tested on: NCI-H2087
Outline: as §1

NCI-H2023 = tested on: NCI-H2023
Outline: as §1

NCI-H1915 = tested on: NCI-H1915
Outline: as §1

NCI-H460 = tested on: NCI-H460
Outline: as §1

NCI-H661 = tested on: NCI-H661
Outline: as §1

NCI-H650 = tested on: NCI-H650
Outline: as §1

NCI-H1650 = tested on: NCI-H1650
Outline: as §1

NCI-H727 = tested on: NCI-H727
Outline: as §1

LC-2-ad = tested on: LC-2-ad
Outline: as §1

H3255 = tested on: H3255
Outline: as §1

SMILES: C[C@@H]1CN(CC(=O)Nc2ccc3c(c2)Cc2cccc(-c4cc(=O)cc(N5CCOCC5)o4)c2S3)C[C@H](C)O1 + CC(=O)Nc1cccc(-n2c(=O)n(C3CC3)c(=O)c3c(Nc4ccc(I)cc4F)n(C)c(=O)c(C)c32)c1 [Trametinib] (partner 0.02 µM)
- relative viability (NCI-H520; first compound 0.04 µM): 0.675
- relative viability (NCI-H520; first compound 0.1265 µM): 0.629
- relative viability (NCI-H520; first compound 0.4 µM): 0.626
- relative viability (NCI-H520; first compound 4 µM): 0.556
- relative viability (NCI-H1651; first compound 0.04 µM): 0.874
- relative viability (NCI-H1651; first compound 0.1265 µM): 0.894
- relative viability (NCI-H1651; first compound 0.4 µM): 0.83
- relative viability (NCI-H1651; first compound 4 µM): 0.629
- relative viability (NCI-H1944; first compound 0.1265 µM): 0.412
- relative viability (NCI-H1944; first compound 0.4 µM): 0.4
- relative viability (NCI-H1944; first compound 4 µM): 0.425
- relative viability (201T; first compound 0.04 µM): 0.732
- relative viability (201T; first compound 0.1265 µM): 0.728
- relative viability (201T; first compound 0.4 µM): 0.675
- relative viability (201T; first compound 4 µM): 0.739
- relative viability (PC-3 [JPC-3]; first compound 0.04 µM): 0.808
- relative viability (PC-3 [JPC-3]; first compound 0.1265 µM): 0.665
- relative viability (PC-3 [JPC-3]; first compound 0.4 µM): 0.666
- relative viability (PC-3 [JPC-3]; first compound 4 µM): 0.634
- relative viability (BEN; first compound 0.04 µM): 0.972
- relative viability (BEN; first compound 0.1265 µM): 0.99
- relative viability (BEN; first compound 0.4 µM): 1.14
- relative viability (BEN; first compound 4 µM): 1.03
- relative viability (A-427; first compound 0.04 µM): 0.682
- relative viability (A-427; first compound 0.1265 µM): 0.755
- relative viability (A-427; first compound 0.4 µM): 0.678
- relative viability (A-427; first compound 4 µM): 0.583
- relative viability (NCI-H441; first compound 0.04 µM): 0.539
- relative viability (NCI-H441; first compound 0.1265 µM): 0.481
- relative viability (NCI-H441; first compound 0.4 µM): 0.305
- relative viability (NCI-H441; first compound 4 µM): 0.368
- relative viability (LCLC-97TM1; first compound 0.1265 µM): 0.165
- relative viability (LCLC-97TM1; first compound 0.4 µM): 0.165
- relative viability (LCLC-97TM1; first compound 4 µM): 0.175
- relative viability (NCI-H596; first compound 0.04 µM): 0.771
- relative viability (NCI-H596; first compound 0.1265 µM): 0.757
- relative viability (NCI-H596; first compound 0.4 µM): 0.725
- relative viability (NCI-H596; first compound 4 µM): 0.768
- relative viability (HCC-15; first compound 0.04 µM): 0.374
- relative viability (HCC-15; first compound 0.1265 µM): 0.331
- relative viability (HCC-15; first compound 0.4 µM): 0.308
- relative viability (HCC-15; first compound 4 µM): 0.348
- relative viability (NCI-H1792; first compound 0.04 µM): 0.422
- relative viability (NCI-H1792; first compound 0.1265 µM): 0.444
- relative viability (NCI-H1792; first compound 0.4 µM): 0.295
- relative viability (NCI-H1792; first compound 4 µM): 0.385
- relative viability (CAL-12T; first compound 0.04 µM): 0.309
- relative viability (CAL-12T; first compound 0.1265 µM): 0.306
- relative viability (CAL-12T; first compound 0.4 µM): 0.304
- relative viability (CAL-12T; first compound 4 µM): 0.205
- relative viability (NCI-H2087; first compound 0.04 µM): 0.248
- relative viability (NCI-H2087; first compound 0.1265 µM): 0.224
- relative viability (NCI-H2087; first compound 0.4 µM): 0.16
- relative viability (NCI-H2087; first compound 4 µM): 0.184
- relative viability (NCI-H2023; first compound 0.04 µM): 0.674
- relative viability (NCI-H2023; first compound 0.1265 µM): 0.507
- relative viability (NCI-H2023; first compound 0.4 µM): 0.509
- relative viability (NCI-H2023; first compound 4 µM): 0.311
- relative viability (NCI-H1915; first compound 0.04 µM): 0.299
- relative viability (NCI-H1915; first compound 0.1265 µM): 0.291
- relative viability (NCI-H1915; first compound 0.4 µM): 0.284
- relative viability (NCI-H1915; first compound 4 µM): 0.294
- relative viability (NCI-H460; first compound 0.04 µM): 0.155
- relative viability (NCI-H460; first compound 0.1265 µM): 0.131
- relative viability (NCI-H460; first compound 0.4 µM): 0.13
- relative viability (NCI-H460; first compound 4 µM): 0.0347
- relative viability (NCI-H661; first compound 0.04 µM): 0.481
- relative viability (NCI-H661; first compound 0.1265 µM): 0.552
- relative viability (NCI-H661; first compound 0.4 µM): 0.615
- relative viability (NCI-H661; first compound 4 µM): 0.507
- relative viability (NCI-H650; first compound 0.04 µM): 0.954
- relative viability (NCI-H650; first compound 0.1265 µM): 1
- relative viability (NCI-H650; first compound 0.4 µM): 0.874
- relative viability (NCI-H650; first compound 4 µM): 0.697
- relative viability (NCI-H1650; first compound 0.04 µM): 0.535
- relative viability (NCI-H1650; first compound 0.1265 µM): 0.548
- relative viability (NCI-H1650; first compound 0.4 µM): 0.596
- relative viability (NCI-H1650; first compound 4 µM): 0.286
- relative viability (NCI-H727; first compound 0.04 µM): 0.386
- relative viability (NCI-H727; first compound 0.1265 µM): 0.396
- relative viability (NCI-H727; first compound 0.4 µM): 0.379
- relative viability (NCI-H727; first compound 4 µM): 0.386
- relative viability (LC-2-ad; first compound 0.04 µM): 0.897
- relative viability (LC-2-ad; first compound 0.1265 µM): 0.867
- relative viability (LC-2-ad; first compound 0.4 µM): 0.892
- relative viability (LC-2-ad; first compound 4 µM): 0.854
- relative viability (H3255; first compound 0.04 µM): 0.584
- relative viability (H3255; first compound 0.1265 µM): 0.601
- relative viability (H3255; first compound 0.4 µM): 0.473
- relative viability (H3255; first compound 4 µM): 0.437
